Measurements as given in ChEMBL document CHEMBL3351759, “Synthesis and antitumor activity of novel 3-oxo-23-hydroxybetulinic acid derivatives” (Eur J Med Chem, 2014).

Key:
Assay type in all cases: functional, cell-based
HeLa = assay: Antiproliferative activity against human HeLa cells after 72 hrs MTT assay
[1] = Antiproliferative activity against human HL60 cells after 72 hrs MTT assay; conditions: HL-60, 72 h
[2] = Antiproliferative activity against human SF763 cells after 72 hrs MTT assay; conditions: SF763, 72 h
[3] = Antiproliferative activity against human Bel7402 cells after 72 hrs MTT assay; conditions: Bel-7402, 72 h
B16 = assay: Antiproliferative activity against mouse B16 cells after 72 hrs MTT assay; conditions: B16, 72 h

Row | IC50 (HeLa) [µM] | IC50 (B16) [µM] | Compound | IC50 [1] [µM] | IC50 [2] [µM] | IC50 [3] [µM]
1 | 70.8 | 47.9 | C=C(C)[C@@H]1CC[C@]2(C(=O)O)CC[C@]3(C)[C@H](CC[C@@H]4[C@@]5(C)C[C@H](CO)[C@H](O)[C@@](C)(CO)[C@@H]5CC[C@]43C)[C@@H]12 | 69 | 50.2 | 59.1
2 | 61.5 | 39 | C=C(C)[C@@H]1CC[C@]2(C(=O)O)CC[C@]3(C)[C@H](CC[C@@H]4[C@@]5(C)C[C@H](COC(C)=O)[C@H](OC(C)=O)[C@@](C)(COC(C)=O)[C@@H]5CC[C@]43C)[C@@H]12 | 59.9 | 46.1 | 50.2
3 | 51.4 | 30.5 | C=C(C)[C@@H]1CC[C@]2(C(=O)OCc3ccccc3)CC[C@]3(C)[C@H](CC[C@@H]4[C@@]5(C)C[C@H](CO)[C@H](O)[C@@](C)(CO)[C@@H]5CC[C@]43C)[C@@H]12 | 47.9 | 39.1 | 41.7
4 | 67.8 | 36.9 | C=C(C)[C@@H]1CC[C@]2(C(=O)O)CC[C@]3(C)[C@H](CC[C@@H]4[C@@]5(C)C[C@H](O)[C@H](O)[C@@](C)(CO)[C@@H]5CC[C@]43C)[C@@H]12 | 66.3 | 53.9 | 56.8
5 | 59.1 | 30.5 | C=C(C)[C@@H]1CC[C@]2(C(=O)O)CC[C@]3(C)[C@H](CC[C@@H]4[C@@]5(C)C[C@H](OC(C)=O)[C@H](OC(C)=O)[C@@](C)(COC(C)=O)[C@@H]5CC[C@]43C)[C@@H]12 | 58.1 | 45.8 | 49.6
6 | 46 | 21.6 | C=C(C)[C@@H]1CC[C@]2(C(=O)OCc3ccccc3)CC[C@]3(C)[C@H](CC[C@@H]4[C@@]5(C)C[C@H](OC(C)=O)[C@H](OC(C)=O)[C@@](C)(COC(C)=O)[C@@H]5CC[C@]43C)[C@@H]12 | 46.1 | 32.1 | 34.5
7 | 50.4 | 26.4 | C=C(C)[C@@H]1CC[C@]2(C(=O)OCc3ccccc3)CC[C@]3(C)[C@H](CC[C@@H]4[C@@]5(C)C[C@H](O)[C@H](O)[C@@](C)(CO)[C@@H]5CC[C@]43C)[C@@H]12 | 49.9 | 33.5 | 39.6
8 | 20 | 11.3 | C=C(C)[C@@H]1CC[C@]2(C(=O)O)CC[C@]3(C)[C@H](CC[C@@H]4[C@@]5(C)C=C(O)C(=O)[C@@](C)(CO)[C@@H]5CC[C@]43C)[C@@H]12 | 22 | 14.3 | 19.6
9 | 24.1 | 15 | C=C(C)[C@@H]1CC[C@]2(C(=O)O)CC[C@]3(C)[C@H](CC[C@@H]4[C@@]5(C)C=C(OC(C)=O)C(=O)[C@@](C)(COC(C)=O)[C@@H]5CC[C@]43C)[C@@H]12 | 29.8 | 18.9 | 25.4
10 | 11.7 | 9.02 | C=C(C)[C@@H]1CC[C@]2(C(=O)Oc3ccc(C#N)cc3)CC[C@]3(C)[C@H](CC[C@@H]4[C@@]5(C)CCC(=O)[C@@](C)(COC(C)=O)[C@@H]5CC[C@]43C)[C@@H]12 | 11.6 | 9.11 | 9.23
11 | 17.1 | 10.7 | C=C(C)[C@@H]1CC[C@]2(C(=O)NCC(=O)OC)CC[C@]3(C)[C@H](CC[C@@H]4[C@@]5(C)CCC(=O)[C@@](C)(COC(C)=O)[C@@H]5CC[C@]43C)[C@@H]12 | 19.2 | 13.6 | 15.6
12 | 24.4 | 18.1 | C=C(C)[C@@H]1CC[C@]2(C(=O)OCCO)CC[C@]3(C)[C@H](CC[C@@H]4[C@@]5(C)CCC(=O)[C@@](C)(COC(C)=O)[C@@H]5CC[C@]43C)[C@@H]12 | 31.1 | 22.1 | 27.4
13 | 10.3 | 8.16 | C=C(C)[C@@H]1CC[C@]2(C(=O)N3CCOCC3)CC[C@]3(C)[C@H](CC[C@@H]4[C@@]5(C)CCC(=O)[C@@](C)(COC(C)=O)[C@@H]5CC[C@]43C)[C@@H]12 | 12.1 | 10.1 | 10.5
14 | 32.1 | 17.1 | C=C(C)[C@@H]1CC[C@]2(C(=O)O)CC[C@]3(C)[C@H](CC[C@@H]4[C@@]5(C)CCC(=O)[C@@](C)(COC(C)=O)[C@@H]5CC[C@]43C)[C@@H]12 | 30.2 | 28.9 | 29.4
15 | 31 | 14.7 | C=C(C)[C@@H]1CC[C@]2(C(=O)O[C@@H]3O[C@H](CO)[C@@H](O)[C@H](O)[C@H]3O)CC[C@]3(C)[C@H](CC[C@@H]4[C@@]5(C)CCC(=O)[C@@](C)(CO)[C@@H]5CC[C@]43C)[C@@H]12 | 26.6 | 21.4 | 22.1
16 | 22.8 | 11.8 | C=CCOC(=O)[C@]12CC[C@@H](C(=C)C)[C@@H]1[C@H]1CC[C@@H]3[C@@]4(C)CCC(=O)[C@@](C)(CO)[C@@H]4CC[C@@]3(C)[C@]1(C)CC2 | 21.8 | 15.1 | 19
17 | 15.2 | 10 | C=C(C)[C@@H]1CC[C@]2(C(=O)OCc3ccc(-c4ccccc4C#N)cc3)CC[C@]3(C)[C@H](CC[C@@H]4[C@@]5(C)CCC(=O)[C@@](C)(CO)[C@@H]5CC[C@]43C)[C@@H]12 | 14.3 | 10.1 | 10.3
18 | 37.1 | 19.4 | C=C(C)[C@@H]1CC[C@]2(C(=O)OCC)CC[C@]3(C)[C@H](CC[C@@H]4[C@@]5(C)CCC(=O)[C@@](C)(CO)[C@@H]5CC[C@]43C)[C@@H]12 | 31.9 | 28.9 | 30.9
19 | 40.8 | 25.7 | C=C(C)[C@@H]1CC[C@]2(C(=O)OCC(=O)OCC)CC[C@]3(C)[C@H](CC[C@@H]4[C@@]5(C)CCC(=O)[C@@](C)(CO)[C@@H]5CC[C@]43C)[C@@H]12 | 37.1 | 24.7 | 30.7
20 | 26.1 | 14.1 | C=C(C)[C@@H]1CC[C@]2(C(=O)OCc3ccccc3)CC[C@]3(C)[C@H](CC[C@@H]4[C@@]5(C)CCC(=O)[C@@](C)(CO)[C@@H]5CC[C@]43C)[C@@H]12 | 23.7 | 19.5 | 20.1
21 | 40.8 | 23.8 | C=C(C)[C@@H]1CC[C@]2(C(=O)O)CC[C@]3(C)[C@H](CC[C@@H]4[C@@]5(C)CC/C(=N\O)[C@@](C)(CO)[C@@H]5CC[C@]43C)[C@@H]12 | 36.9 | 31.8 | 32.1
22 | 44.3 | 33.3 | C=C(C)[C@@H]1CC[C@]2(C(=O)O)CC[C@]3(C)[C@H](CC[C@@H]4[C@@]5(C)CC/C(=N\NS(=O)(=O)c6ccc(C)cc6)[C@@](C)(CO)[C@@H]5CC[C@]43C)[C@@H]12 | 46.3 | 25.2 | 39.4
23 | 21.9 | 16.2 | C=C(C)[C@@H]1CC[C@]2(C(=O)OCc3ccccc3)CC[C@]3(C)[C@H](CC[C@@H]4[C@@]5(C)CC/C(=N\NS(=O)(=O)c6ccc(C)cc6)[C@@](C)(CO)[C@@H]5CC[C@]43C)[C@@H]12 | 29.1 | 18.4 | 26.4
24 | 30 | 17.8 | C=C(C)[C@@H]1CC[C@]2(C(=O)OCC(=O)OCC)CC[C@]3(C)[C@H](CC[C@@H]4[C@@]5(C)CC/C(=N\O)[C@@](C)(CO)[C@@H]5CC[C@]43C)[C@@H]12 | 33.7 | 26.1 | 30.6
25 | 23.8 | 17.4 | C=C(C)[C@@H]1CC[C@]2(C(=O)OCC(=O)O)CC[C@]3(C)[C@H](CC[C@@H]4[C@@]5(C)CC/C(=N\O)[C@@](C)(CO)[C@@H]5CC[C@]43C)[C@@H]12 | 30.5 | 17.5 | 27.2
26 | 31.7 | 17.6 | C=C(C)[C@@H]1CC[C@]2(C(=O)OCC)CC[C@]3(C)[C@H](CC[C@@H]4[C@@]5(C)CC/C(=N\O)[C@@](C)(CO)[C@@H]5CC[C@]43C)[C@@H]12 | 31.6 | 28.6 | 30.8
27 | 25 | 13.1 | C=CCOC(=O)[C@]12CC[C@@H](C(=C)C)[C@@H]1[C@H]1CC[C@@H]3[C@@]4(C)CC/C(=N\O)[C@@](C)(CO)[C@@H]4CC[C@@]3(C)[C@]1(C)CC2 | 24.1 | 15.5 | 22.6

Row | Compound | IC50 (HeLa) [µM] | IC50 (B16) [µM] | IC50 [1] [µM] | IC50 [2] [µM] | IC50 [3] [µM]
28 | COc1cccc2c1C(=O)c1c(O)c3c(c(O)c1C2=O)C[C@@](O)(C(=O)CO)C[C@@H]3O[C@H]1C[C@H](N)[C@H](O)[C@H](C)O1 [DOXORUBICIN] | 0.21 | 0.18 |  |  | 0.22
